Laboratory results reported in PubChem BioAssay AID248 (DTP/NCI, 2004).
Inconclusive results and toxic doses are left out. Cut-off read from the data, not from the text of the source: active = T/C of 150% or more; inactive = T/C below 125%.

System: L1210 leukemia ip in BDF1 mice, survival T/C
Experiment: NCI In Vivo Anticancer Drug Screen. Data for tumor model L1210 Leukemia (intraperitoneal) in B6D2F1 (BDF1) mice
Details: endpoint: mean survival time, higher = longer survival
How it was run: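 Antitumor effect is assessed in tumor-bearing animals. Survival in the compound arm is compared with a vehicle-dosed control arm and expressed as their quotient.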

[1] = dose: 75.0 mg/kg/injection, schedule: Q01DX001 (ip), vehicle: saline
[2] = dose: 100.0 mg/kg/injection, schedule: Q01DX009 (ip), vehicle: Klucel (hydroxypropylcellulose) (HPC)
[3] = dose: 200.0 mg/kg/injection, schedule: Q01DX009 (ip), vehicle: Klucel (hydroxypropylcellulose) (HPC)
[4] = dose: 400.0 mg/kg/injection, schedule: Q01DX009 (ip), vehicle: Klucel (hydroxypropylcellulose) (HPC)
[5] = dose: 100.0 mg/kg/injection, schedule: Q04DX003 (ip), vehicle: Klucel (hydroxypropylcellulose) (HPC)
[6] = dose: 100.0 mg/kg/injection, schedule: Q01DX001 (ip), vehicle: saline
[7] = dose: 200.0 mg/kg/injection, schedule: Q01DX001 (ip), vehicle: saline
[8] = dose: 100.0 mg/kg/injection, schedule: Q01DX001 (ip), vehicle: saline with Tween-80
[9] = dose: 200.0 mg/kg/injection, schedule: Q01DX001 (ip), vehicle: saline with Tween-80

Measured: T/C

COC(=O)C1CC(=O)C2(C)CCc3c(ccc4cc(OC)ccc34)C12 (configuration not stated)
inactive: dose: 100.0 mg/kg/injection, schedule: Q01DX009 (sc), vehicle: steriod suspending solution 103 % of control | dose: 100.0 mg/kg/injection, schedule: Q04DX003 (sc), vehicle: steriod suspending solution 102 % of control | dose: 200.0 mg/kg/injection, schedule: Q01DX009 (sc), vehicle: steriod suspending solution 93 % of control | dose: 200.0 mg/kg/injection, schedule: Q04DX003 (sc), vehicle: steriod suspending solution 86 % of control | dose: 400.0 mg/kg/injection, schedule: Q01DX009 (sc), vehicle: steriod suspending solution 88 % of control | dose: 400.0 mg/kg/injection, schedule: Q04DX003 (sc), vehicle: steriod suspending solution 94 % of control

CC(=O)Nc1nc(-c2ccccc2)c(CCC=O)c(=O)[nH]1
inactive: dose: 50.0 mg/kg/injection, schedule: Q01DX001 (ip), vehicle: Klucel (hydroxypropylcellulose) (HPC) 93 % of control | dose: 100.0 mg/kg/injection, schedule: Q01DX001 (ip), vehicle: Klucel (hydroxypropylcellulose) (HPC) 96 % of control | dose: 200.0 mg/kg/injection, schedule: Q01DX001 (ip), vehicle: Klucel (hydroxypropylcellulose) (HPC) 104 % of control

NNc1ccc(-c2ccccc2)cc1
inactive: dose: 75.0 mg/kg/injection, schedule: Q01DX001 (ip), vehicle: carboxymethylcellulose (CMC) 95 % of control | dose: 150.0 mg/kg/injection, schedule: Q01DX001 (ip), vehicle: carboxymethylcellulose (CMC) 92 % of control | dose: 300.0 mg/kg/injection, schedule: Q01DX001 (ip), vehicle: carboxymethylcellulose (CMC) 97 % of control

Oc1ccc2ccccc2c1N=Nc1ccc(Cl)cc1
inactive: dose: 12.5 mg/kg/injection, schedule: Q01DX015 (ip), vehicle: saline 104 % of control | dose: 25.0 mg/kg/injection, schedule: Q01DX015 (ip), vehicle: saline 106 % of control | dose: 50.0 mg/kg/injection, schedule: Q01DX015 (ip), vehicle: saline 106 % of control | dose: 100.0 mg/kg/injection, schedule: Q01DX009 (ip), vehicle: carboxymethylcellulose (CMC) 87 % of control | dose: 100.0 mg/kg/injection, schedule: Q01DX015 (ip), vehicle: saline 98 % of control | dose: 100.0 mg/kg/injection, schedule: Q04DX003 (ip), vehicle: acetone 98 % of control | dose: 200.0 mg/kg/injection, schedule: Q01DX009 (ip), vehicle: carboxymethylcellulose (CMC) 87 % of control | dose: 200.0 mg/kg/injection, schedule: Q01DX015 (ip), vehicle: saline 95 % of control | dose: 200.0 mg/kg/injection, schedule: Q04DX003 (ip), vehicle: acetone 94 % of control | dose: 400.0 mg/kg/injection, schedule: Q01DX015 (ip), vehicle: saline 90 % of control | dose: 400.0 mg/kg/injection, schedule: Q04DX003 (ip), vehicle: acetone 88 % of control | dose: 800.0 mg/kg/injection, schedule: Q01DX015 (ip), vehicle: saline 96 % of control | dose: 1600.0 mg/kg/injection, schedule: Q01DX015 (ip), vehicle: saline 89 % of control

CC(C)CCC[C@@H](C)[C@H]1CC[C@H]2[C@@H]3CCC(=O)[C@](C)(CCC(=O)O)[C@H]3CC[C@]12C
inactive: dose: 50.0 mg/kg/injection, schedule: Q04DX003 (ip), vehicle: alcohol 102 % of control | dose: 100.0 mg/kg/injection, schedule: Q04DX003 (ip), vehicle: alcohol 98 % of control | dose: 200.0 mg/kg/injection, schedule: Q04DX003 (ip), vehicle: alcohol 102 % of control

C#CCCCCC#[C][Hg][C]#CCCCCC#C
inactive: [1] 94 % of control

O=[N+]([O-])c1ccc(N/N=C/c2ccccn2)cc1
inactive: [2] 87 % of control | [3] 95 % of control | [4] 97 % of control

CCC(COS(=O)(=O)c1ccc(C)cc1)[N+](=O)[O-] (configuration not stated)
inactive: dose: 25.0 mg/kg/injection, schedule: Q04DX003 (ip), vehicle: Klucel (hydroxypropylcellulose) (HPC) 112 % of control | dose: 50.0 mg/kg/injection, schedule: Q04DX003 (ip), vehicle: Klucel (hydroxypropylcellulose) (HPC) 96 % of control | [5] 86 % of control

CCOC(=O)C1(C(=O)OCC)CCC1
inactive: [6] 103 % of control | [7] 94 % of control

O=S(=O)(/N=C1C=C/C(=N/S(=O)(=O)c2ccccc2)C2C3C=CC(C3)C/12)c1ccccc1 (configuration not stated)
inactive: [2] 109 % of control | [5] 94 % of control | [3] 103 % of control | dose: 200.0 mg/kg/injection, schedule: Q04DX003 (ip), vehicle: Klucel (hydroxypropylcellulose) (HPC) 97 % of control | [4] 95 % of control | dose: 400.0 mg/kg/injection, schedule: Q04DX003 (ip), vehicle: Klucel (hydroxypropylcellulose) (HPC) 92 % of control

CC(CN1c2ccccc2Sc2cccnc21)N(C)C (configuration not stated)
inactive: dose: 3.12 mg/kg/injection, schedule: Q01DX009 (ip), vehicle: saline 97 % of control | dose: 6.25 mg/kg/injection, schedule: Q01DX009 (ip), vehicle: saline 97 % of control | dose: 12.5 mg/kg/injection, schedule: Q01DX009 (ip), vehicle: saline 101 % of control | dose: 25.0 mg/kg/injection, schedule: Q01DX009 (ip), vehicle: saline 103 % of control | dose: 25.0 mg/kg/injection, schedule: Q04DX003 (ip), vehicle: saline 108 % of control | dose: 50.0 mg/kg/injection, schedule: Q01DX009 (ip), vehicle: saline 111 % of control | dose: 50.0 mg/kg/injection, schedule: Q04DX003 (ip), vehicle: saline 102 % of control

NNC(=O)c1ccccc1CO
inactive: [8] 100 % of control | [9] 103 % of control

COC(=O)NC1CC(O)C(CO)C1 (configuration not stated)
inactive: dose: 50.0 mg/kg/injection, schedule: Q01DX009 (ip), vehicle: Klucel (hydroxypropylcellulose) (HPC) 94 % of control | [2] 97 % of control

CCC(CC)C(O)C(C)C(C)O (configuration not stated)
inactive: dose: 100.0 mg/kg/injection, schedule: Q04DX003 (ip), vehicle: saline with Tween-80 97 % of control | dose: 200.0 mg/kg/injection, schedule: Q04DX003 (ip), vehicle: saline with Tween-80 113 % of control | dose: 400.0 mg/kg/injection, schedule: Q04DX003 (ip), vehicle: saline with Tween-80 97 % of control

CCCCNC(=O)C1CCCC(C(=O)NCCCC)C1 (configuration not stated)
inactive: dose: 75.0 mg/kg/injection, schedule: Q01DX009 (ip), vehicle: saline 96 % of control | dose: 150.0 mg/kg/injection, schedule: Q01DX009 (ip), vehicle: saline 102 % of control | dose: 300.0 mg/kg/injection, schedule: Q01DX009 (ip), vehicle: saline 87 % of control

Cc1cc(OC(=O)NC2CCCCC2)cc(C)c1Cl
inactive: [2] 95 % of control | [3] 95 % of control | [4] 94 % of control

CC(=O)Nc1ccc2c(Nc3ccc(NS(C)(=O)=O)cc3)c3ccccc3nc2c1
inactive: dose: 18.0 mg/kg/injection, schedule: Q01DX009 (ip), vehicle: saline with Tween-80 93 % of control | dose: 25.0 mg/kg/injection, schedule: Q01DX009 (ip), vehicle: Klucel (hydroxypropylcellulose) (HPC) 93 % of control
active: dose: 0.8 mg/kg/injection, schedule: Q01DX009 (ip), vehicle: Klucel (hydroxypropylcellulose) (HPC) 151 % of control | dose: 1.5 mg/kg/injection, schedule: Q01DX009 (sc), vehicle: saline 156 % of control | dose: 1.6 mg/kg/injection, schedule: Q01DX009 (ip), vehicle: Klucel (hydroxypropylcellulose) (HPC) 159 % of control | dose: 3.1 mg/kg/injection, schedule: Q01DX009 (ip), vehicle: Klucel (hydroxypropylcellulose) (HPC) 180 % of control | dose: 5.4 mg/kg/injection, schedule: Q01DX009 (ip), vehicle: saline with Tween-80 228 % of control | dose: 6.25 mg/kg/injection, schedule: Q01DX009 (ip), vehicle: Klucel (hydroxypropylcellulose) (HPC) 281 % of control | dose: 8.0 mg/kg/injection, schedule: Q01DX009 (ip), vehicle: saline with Tween-80 176 % of control | dose: 12.0 mg/kg/injection, schedule: Q01DX009 (ip), vehicle: saline with Tween-80 171 % of control | dose: 12.5 mg/kg/injection, schedule: Q01DX009 (ip), vehicle: saline with Tween-80 165 % of control | dose: 12.5 mg/kg/injection, schedule: Q01DX009 (sc), vehicle: saline 152 % of control

Cc1cc(=O)c2cc(Cc3ccc(N)cc3)ccc2[nH]1
inactive: [6] 101 % of control | [7] 108 % of control

CCCCC1(C(C)C)C(=O)NC(=O)NC1=O
inactive: [1] 102 % of control | dose: 150.0 mg/kg/injection, schedule: Q01DX001 (ip), vehicle: saline 96 % of control

COc1cc(C(N)=O)cc(OC)c1OC
inactive: [8] 96 % of control | [9] 98 % of control | dose: 400.0 mg/kg/injection, schedule: Q01DX001 (ip), vehicle: saline with Tween-80 98 % of control
